target: PIK3CA (human) (UniProt P42336); assay: Assessment of PIK3CA Kinase Activity Using One Step Solid Phase Assay
Sequence (P42336 whole entry, looked up): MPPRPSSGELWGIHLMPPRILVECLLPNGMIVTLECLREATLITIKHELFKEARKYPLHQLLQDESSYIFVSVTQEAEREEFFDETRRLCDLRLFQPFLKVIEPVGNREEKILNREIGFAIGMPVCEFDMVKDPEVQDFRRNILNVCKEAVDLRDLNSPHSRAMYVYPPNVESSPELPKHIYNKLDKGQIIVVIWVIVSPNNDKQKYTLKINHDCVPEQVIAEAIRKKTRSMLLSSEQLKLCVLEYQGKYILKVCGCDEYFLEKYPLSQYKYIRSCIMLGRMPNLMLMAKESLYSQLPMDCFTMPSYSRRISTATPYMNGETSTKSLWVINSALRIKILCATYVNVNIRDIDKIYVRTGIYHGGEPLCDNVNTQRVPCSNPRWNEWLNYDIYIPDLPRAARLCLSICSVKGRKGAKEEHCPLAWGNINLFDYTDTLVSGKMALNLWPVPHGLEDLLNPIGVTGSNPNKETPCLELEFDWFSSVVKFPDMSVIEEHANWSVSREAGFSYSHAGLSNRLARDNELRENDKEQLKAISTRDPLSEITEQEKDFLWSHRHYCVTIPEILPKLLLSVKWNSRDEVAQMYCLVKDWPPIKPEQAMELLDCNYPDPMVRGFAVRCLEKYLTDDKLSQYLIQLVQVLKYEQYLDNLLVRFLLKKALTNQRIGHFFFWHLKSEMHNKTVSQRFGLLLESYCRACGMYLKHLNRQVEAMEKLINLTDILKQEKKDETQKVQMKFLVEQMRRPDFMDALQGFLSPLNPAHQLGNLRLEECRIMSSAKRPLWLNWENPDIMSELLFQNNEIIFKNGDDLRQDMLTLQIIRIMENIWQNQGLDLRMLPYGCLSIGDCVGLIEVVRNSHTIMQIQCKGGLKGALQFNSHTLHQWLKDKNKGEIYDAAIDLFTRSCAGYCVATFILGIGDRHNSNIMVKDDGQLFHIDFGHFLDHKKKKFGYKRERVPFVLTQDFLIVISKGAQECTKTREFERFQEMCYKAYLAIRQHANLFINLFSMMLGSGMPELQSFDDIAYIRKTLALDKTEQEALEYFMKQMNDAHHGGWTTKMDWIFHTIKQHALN

IC50, < 20 µM:
C[C@@H]1COC[C@H](C)N1c1cc(-c2cccc(O)c2)nc(N2CCOCC2)n1, Oc1cccc(Nc2cc(-c3cccc(O)c3)nc(N3CCOCC3)n2)c1, Oc1cccc(-c2cc(N3CCN(c4ccccn4)CC3)nc(N3CCOCC3)n2)c1, CC(C)(C)C(=O)Oc1cccc(-c2cc(Nc3cccnc3)nc(N3CCOCC3)n2)c1, COc1cccc(-c2nc(N3CCOCC3)nc(Nc3cccnc3)c2C(=O)O)c1, CN1CCCN(c2cc(-c3cccc(O)c3)nc(N3CCOCC3)n2)CC1, CC(=O)Oc1cccc(-c2cc(Nc3cccnc3)nc(N3CCOCC3)n2)c1, CCCC(=O)Oc1cccc(-c2cc(Nc3cccnc3)nc(N3CCOCC3)n2)c1, COc1cc(Nc2ccccc2)ccc1Nc1cc(-c2cccc(O)c2)nc(N2CCOCC2)n1, CCOc1ccc(Nc2cc(-c3cccc(O)c3)nc(N3CCOCC3)n2)cc1, Oc1cccc(-c2cc(Nc3ccccc3O)nc(N3CCOCC3)n2)c1, Oc1cccc(-c2cc(Nc3cc(-c4ccccc4)ccc3O)nc(N3CCOCC3)n2)c1, COc1ccc(Nc2cc(-c3cccc(O)c3)nc(N3CCOCC3)n2)c(OC)c1, Oc1cccc(-c2cc(NCCc3ccncc3)nc(N3CCOCC3)n2)c1, Oc1ccc(Br)c(-c2cc(Nc3cccnc3)nc(N3CCOCC3)n2)c1, Oc1cccc(-c2cc(Nc3cc(Cl)ccc3O)nc(N3CCOCC3)n2)c1, COc1cccc(C)c1Nc1cc(-c2cccc(O)c2)nc(N2CCOCC2)n1, Oc1ccc(Nc2cc(-c3cccc(O)c3)nc(N3CCOCC3)n2)cc1, Oc1cccc(-c2cc(Nc3cccc(Oc4ccccc4)c3)nc(N3CCOCC3)n2)c1, CCC(CO)(CO)Nc1cc(-c2cccc(O)c2)nc(N2CCOCC2)n1, CCOc1ccc(NC(C)=O)cc1Nc1cc(-c2cccc(O)c2)nc(N2CCOCC2)n1, Oc1cccc(-c2cc(NCc3ccccn3)nc(N3CCOCC3)n2)c1, Oc1cccc(-c2cc(NCCCn3ccnc3)nc(N3CCOCC3)n2)c1, Oc1cccc(-c2cc(Nc3ccc4nn[nH]c4c3)nc(N3CCOCC3)n2)c1, Oc1cc(-c2cc(Nc3cccnc3)nc(N3CCOCC3)n2)ccc1Cl, COc1cccc(Nc2cc(-c3cccc(O)c3)nc(N3CCOCC3)n2)c1OC, Oc1ccc(F)c(-c2cc(Nc3cccnc3)nc(N3CCOCC3)n2)c1, CCCCOc1ccc(Nc2cc(-c3cccc(O)c3)nc(N3CCOCC3)n2)cc1, Oc1cccc(-c2cc(N3CCN(Cc4ccc5c(c4)OCO5)CC3)nc(N3CCOCC3)n2)c1, O=C(CN1CCN(c2cc(-c3cccc(O)c3)nc(N3CCOCC3)n2)CC1)N1CCOCC1, COc1cccc(Nc2cc(-c3cccc(O)c3)nc(N3CCOCC3)n2)c1, CCOc1ccccc1Nc1cc(-c2cccc(O)c2)nc(N2CCOCC2)n1, COc1cccc(N2CCN(c3cc(-c4cccc(O)c4)nc(N4CCOCC4)n3)CC2)c1, CC(C)C(N)C(=O)Oc1cccc(-c2cc(Nc3cccnc3)nc(N3CCOCC3)n2)c1 (centres undefined), Oc1cccc(-c2cc(NCc3ccncc3)nc(N3CCOCC3)n2)c1, NC1CCCC(Nc2cc(-c3cccc(O)c3)nc(N3CCOCC3)n2)C1 (centres undefined), CCOc1ccc(OCC)c(Nc2cc(-c3cccc(O)c3)nc(N3CCOCC3)n2)c1, Oc1cccc(-c2cc(NCCc3ccccn3)nc(N3CCOCC3)n2)c1, Oc1cccc(-c2cc(NCCc3cccnc3)nc(N3CCOCC3)n2)c1, Oc1cccc(-c2cc(Nc3ccc4c(c3)OCCCO4)nc(N3CCOCC3)n2)c1, Oc1cccc(-c2cc(Nc3ncccn3)nc(N3CCOCC3)n2)c1, Oc1cccc(-c2cc(N3CCC(O)CC3)nc(N3CCOCC3)n2)c1, COc1ccccc1Nc1cc(-c2cccc(O)c2)nc(N2CCOCC2)n1, COc1ccc(Nc2cc(-c3ccccc3)nc(N3CCOCC3)n2)cc1O, Oc1cccc(-c2cc(Nc3ccc(Oc4ccccc4)cc3)nc(N3CCOCC3)n2)c1, COc1ccc(OC)c(Nc2cc(-c3cccc(O)c3)nc(N3CCOCC3)n2)c1, COc1c(Nc2cc(-c3cccc(O)c3)nc(N3CCOCC3)n2)ccc2c1oc1ccccc12, Oc1cccc(-c2cc(N3CCN(c4cccc(Cl)c4)CC3)nc(N3CCOCC3)n2)c1, Cc1ccc(CN(Cc2cccnc2)c2cc(-c3cccc(O)c3)nc(N3CCOCC3)n2)cc1, Fc1ccccc1-c1cc(Nc2ccc3[nH]ncc3c2)nc(N2CCOCC2)n1, Cc1ccc(CN(Cc2ccccn2)c2cc(-c3cccc(O)c3)nc(N3CCOCC3)n2)cc1, Oc1cccc(-c2cc(Nc3cccc(OCc4ccccc4)c3)nc(N3CCOCC3)n2)c1, Oc1cccc(-c2cc(N3CCN(CCc4ccccc4)CC3)nc(N3CCOCC3)n2)c1, N[C@@H]1CCCC[C@H]1Nc1cc(-c2cccc(O)c2)nc(N2CCOCC2)n1, Oc1cccc(-c2cc(N(Cc3ccccc3)Cc3ccccc3)nc(N3CCOCC3)n2)c1, COc1ccc(Nc2cc(-c3cccc(O)c3)nc(N3CCOCC3)n2)cc1OC1CCCC1, CCn1c(C)nc2cc(Nc3cc(-c4cccc(O)c4)nc(N4CCOCC4)n3)ccc21

target: PIK3CA (human) (UniProt P42336); assay: Assessment of PIK3CA Kinase Activity Using Homogenous Solution Phase Assay

IC50, < 20 µM:
Oc1cccc(-c2cc(Nc3ccc4c(c3)OCCO4)nc(N3CCOCC3)n2)c1, C[C@@H]1COC[C@H](C)N1c1cc(-c2cccc(O)c2)nc(N2CCOCC2)n1, COc1ccc(Nc2cc(-c3cccc(O)c3)nc(N3CCOCC3)n2)cc1F, Oc1cccc(-c2cc(Nc3cnccn3)nc(N3CCOCC3)n2)c1, Oc1cccc(-c2cc(N3CCN(c4ccccn4)CC3)nc(N3CCOCC3)n2)c1, Oc1cccc(-c2cc(N(Cc3ccccc3)Cc3nccs3)nc(N3CCOCC3)n2)c1, CC(C)(C)C(=O)Oc1cccc(-c2cc(Nc3cccnc3)nc(N3CCOCC3)n2)c1, Nc1cc(-c2cccc(O)c2)nc(N2CCOCC2)n1, COc1cccc(-c2cc(Nc3cccnc3)nc(N3CCOCC3)n2)c1, CC(=O)Oc1cccc(-c2cc(Nc3cccnc3)nc(N3CCOCC3)n2)c1, CCCC(=O)Oc1cccc(-c2cc(Nc3cccnc3)nc(N3CCOCC3)n2)c1, Cc1ccc(O)cc1-c1cc(Nc2cccnc2)nc(N2CCOCC2)n1, OCC1CCCN1c1cc(-c2cccc(O)c2)nc(N2CCOCC2)n1 (centres undefined), Oc1cccc(-c2cc(Nc3ccc4ncccc4c3)nc(N3CCOCC3)n2)c1, Oc1cccc(-c2cc(Nc3ccc4c(c3)Cc3ccccc3-4)nc(N3CCOCC3)n2)c1, Oc1cccc(-c2cc(NCCc3ccncc3)nc(N3CCOCC3)n2)c1, COc1ccc(Nc2cc(-c3cccc(O)c3)nc(N3CCOCC3)n2)cc1Cl, Oc1cccc(-c2cc(Nc3ccc(O)c(Cl)c3)nc(N3CCOCC3)n2)c1, Oc1ccc(Br)c(-c2cc(Nc3cccnc3)nc(N3CCOCC3)n2)c1, Oc1cccc(-c2cc(Nc3ccc4c(c3)CCC4)nc(N3CCOCC3)n2)c1, CCC(CO)(CO)Nc1cc(-c2cccc(O)c2)nc(N2CCOCC2)n1, Oc1cccc(-c2cc(Nc3ccc4c(c3)OCO4)nc(N3CCOCC3)n2)c1, CCOc1ccc(NC(C)=O)cc1Nc1cc(-c2cccc(O)c2)nc(N2CCOCC2)n1, Fc1cccc(-c2cc(Nc3cccnc3)nc(N3CCOCC3)n2)c1, Oc1cccc(-c2cc(NCc3ccccn3)nc(N3CCOCC3)n2)c1, Oc1cccc(-c2cc(Nc3ccc4nn[nH]c4c3)nc(N3CCOCC3)n2)c1, Oc1cccc(-c2cc(Nc3ccc4c(c3)NCC4)nc(N3CCOCC3)n2)c1, Oc1cc(-c2cc(Nc3cccnc3)nc(N3CCOCC3)n2)ccc1Cl, Oc1cccc(-c2cc(Nc3ccc4[nH]ncc4c3)nc(N3CCCNCC3)n2)c1, Oc1cccc(-c2cc(Nc3ccc4cn[nH]c4c3)nc(N3CCOCC3)n2)c1, Oc1ccc(F)c(-c2cc(Nc3cccnc3)nc(N3CCOCC3)n2)c1, Cc1ccc(Nc2cc(-c3cccc(O)c3)nc(N3CCOCC3)n2)cc1C, COc1cccc(N2CCN(c3cc(-c4cccc(O)c4)nc(N4CCOCC4)n3)CC2)c1, CC(C)C(N)C(=O)Oc1cccc(-c2cc(Nc3cccnc3)nc(N3CCOCC3)n2)c1 (centres undefined), Oc1cccc(-c2cc(NCc3ccncc3)nc(N3CCOCC3)n2)c1, COc1ccc(Nc2cc(-c3cccc(O)c3)nc(N3CCOCC3)n2)cc1O, Oc1cccc(-c2cc(Nc3ncccn3)nc(N3CCOCC3)n2)c1, Oc1cccc(-c2cc(Nc3ccccn3)nc(N3CCOCC3)n2)c1, COc1ccc(Nc2cc(-c3cccc(O)c3)nc(N3CCOCC3)n2)cc1OC, CC(=O)N1CCc2ccc(Nc3cc(-c4cccc(O)c4)nc(N4CCOCC4)n3)cc21, Oc1cccc(-c2cc(Nc3cccc4cnccc34)nc(N3CCOCC3)n2)c1, Oc1cccc(-c2cc(Nc3ccc4[nH]ncc4c3)nc(N3CCCCCC3)n2)c1, O=[N+]([O-])c1cc(Nc2cc(-c3cccc(O)c3)nc(N3CCOCC3)n2)ccc1O, FC(F)(F)c1cccc(-c2cc(Nc3cccnc3)nc(N3CCOCC3)n2)c1, O=c1[nH]c2ccc(Nc3cc(-c4cccc(O)c4)nc(N4CCOCC4)n3)cc2[nH]1, COc1cc(Nc2cc(-c3cccc(O)c3)nc(N3CCOCC3)n2)cc(OC)c1OC, Oc1cccc(-c2cc(Nc3ccc4nc[nH]c4c3)nc(N3CCOCC3)n2)c1

Source: the Kinase Knowledgebase extract (Sharma et al. 2016)
